Experiments:
human ALK2 R206H = target: T1, human ALK2 R206H (Homo sapiens, UniProt Q04771, R206H); test: Cell-based ALK2-R206H cell activity assay (Smad1-Ser463/Ser465 phosphorylation by AlphaLISA in HEK293-ALK2-R206H cells); details: read-out: Cell Line (Cell Assay IC50)
T1 construct: expressed in transfected cells; host or cells: HEK293 (ATCC CRL1573), lentivirus transduction, blasticidin selection
T1 sequence (Q04771 21-509 R206H): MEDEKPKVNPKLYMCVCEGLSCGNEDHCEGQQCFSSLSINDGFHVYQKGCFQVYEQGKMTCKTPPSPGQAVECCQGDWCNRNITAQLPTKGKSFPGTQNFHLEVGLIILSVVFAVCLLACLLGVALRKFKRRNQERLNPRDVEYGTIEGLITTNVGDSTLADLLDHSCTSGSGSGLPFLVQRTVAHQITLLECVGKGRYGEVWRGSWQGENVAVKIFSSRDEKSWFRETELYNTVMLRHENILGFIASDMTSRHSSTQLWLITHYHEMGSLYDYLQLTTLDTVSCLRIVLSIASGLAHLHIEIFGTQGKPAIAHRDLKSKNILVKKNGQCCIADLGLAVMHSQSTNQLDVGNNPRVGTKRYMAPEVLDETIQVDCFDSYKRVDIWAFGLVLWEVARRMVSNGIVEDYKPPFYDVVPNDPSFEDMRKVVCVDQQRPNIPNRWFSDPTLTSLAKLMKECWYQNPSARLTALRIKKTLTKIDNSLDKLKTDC
Summary of the method: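 Stable HEK293 cells expressing C-terminally FLAG-tagged human ALK2 R206H (lentiviral, blasticidin-selected) were treated with compounds in 10-point, 3-fold dilutions from 10 μM or 1 μM top, in duplicate. Smad1 Ser463/Ser465 phosphorylation was read by AlphaLISA.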

[1] = target: T2, ALK2 R206H (GST-tagged mutant ALK2) (Homo sapiens, UniProt Q04771, R206H); test: ALK binding assay (LANTHASCREEN TR-FRET competitive binding, displacement of Kinase Tracer 178); details: ALK2 R206H, LANTHASCREEN TR-FRET competitive binding; read-out: Binding Assay (IC50)
T2 construct: purchased Carna Bioscience or ThermoFisher 09-148 or PV6232
T2 sequence (Q04771 21-509 R206H): T1 sequence (Q04771 21-509 R206H)

SMILES	IC50 (human ALK2 R206H) [nM]	IC50 [1] [nM]
CCOC(=O)N1CCN(c2ccnn3cc(-c4ccc(C5CCN(C(C)C)CC5)cc4)cc23)CC1 [Compound 534]	< 100	< 10
CCNC(=O)N1CCN(c2ccnn3cc(-c4ccc(C5CN(C(C)C)CCN5)cc4)cc23)CC1 (centres unmarked) [Compound 537]	< 100	< 10
CCNC(=O)N1CCN(c2ccnn3cc(-c4ccc([C@@H]5CCCN(C(C)C)C5)cn4)cc23)CC1 [Compound 538]	< 100	< 10
CCNC(=O)N1CCN(c2ccnn3cc(-c4ccc([C@H]5CCCN(C(C)C)C5)cn4)cc23)CC1 [Compound 539]	< 100	< 10
CC(C)NC(=O)N1CCN(c2ccnn3cc(-c4ccc(C5(O)CN(C(C)C)C5)cc4)cc23)CC1 [Compound 540]	< 100	< 10
COC1(c2ccc(-c3cc4c(N5CCN(C(=O)NC(C)C)CC5)ccnn4c3)cc2)CCNCC1 [Compound 541]	< 100	< 10
CO[C@]1(c2ccc(-c3cc4c(N5CCN(C(=O)NC(C)C)CC5)ccnn4c3)cc2)CCCNC1 [Compound 542]	< 100	< 10
CO[C@@]1(c2ccc(-c3cc4c(N5CCN(C(=O)NC(C)C)CC5)ccnn4c3)cc2)CCCNC1 [Compound 543]	< 100	< 10
CCOC(=O)N1CCN(c2ccnn3cc(-c4ccc([C@@H]5CCCN(C(C)C)C5)cn4)cc23)CC1 [Compound 544]	< 100	< 10
CCOC(=O)N1CCN(c2ccnn3cc(-c4ccc([C@H]5CCCN(C(C)C)C5)cn4)cc23)CC1 [Compound 545]	< 100	< 10
CCNC(=O)N1CCN(c2ccnn3cc(-c4ccc(N5CCN(C(C)C)CC5)cn4)cc23)CC1 [Compound 546]	< 100	< 10
CCNC(=O)N1CCN(c2ccnn3cc(-c4ccc(C5CCN(C(C)C)CC5)nn4)cc23)CC1 [Compound 548]	> 500	< 10
CCOC(=O)N1CCN(c2ccnn3cc(-c4ccc([C@@]5(O)CCN(C(C)C)C5)cc4)cc23)CC1 [Compound 550]	< 100	< 10
CCOC(=O)N1CCN(c2ccnn3cc(-c4ccc([C@]5(O)CCN(C(C)C)C5)cc4)cc23)CC1 [Compound 551]	< 100	< 10
CCNC(=O)N1CCN(c2ccnn3cc(-c4cnc(N5CCN(C(C)C)CC5)cn4)cc23)CC1 [Compound 554]	100 to 500	< 10
CC(C)NC(=O)N1CCN(c2ccnn3cc(-c4cnn([C@@H]5CCCN(C(C)C)C5)c4)cc23)CC1 [Compound 556]	< 100	< 10
CC(C)NC(=O)N1CCN(c2ccnn3cc(-c4cnn([C@H]5CCCN(C(C)C)C5)c4)cc23)CC1 [Compound 557]	< 100	< 10
O=C(OC1COC1)N1CCN(c2ccnn3cc(-c4ccc([C@]5(F)CCCNC5)cc4)cc23)CC1 [Compound 558]	< 100	< 10
O=C(OC1COC1)N1CCN(c2ccnn3cc(-c4ccc([C@@]5(F)CCCNC5)cc4)cc23)CC1 [Compound 559]	< 100	< 10
CCC(C)N1CCC[C@@H](c2ccc(-c3cc4c(N5CCN(C(=O)C6CC6)CC5)ccnn4c3)cc2)C1 (some centres unmarked) [Compound 560]	< 100	< 10
CC[C@H](C)N1CCC[C@@H](c2ccc(-c3cc4c(N5CCN(C(=O)C6CC6)CC5)ccnn4c3)cc2)C1 [Compound 561]	< 100	< 10
CC[C@@H](C)N1CCC[C@@H](c2ccc(-c3cc4c(N5CCN(C(=O)C6CC6)CC5)ccnn4c3)cc2)C1 [Compound 562]	< 100	< 10

SMILES	IC50 (human ALK2 R206H) [nM]	IC50 [1] [nM]
CC[C@@H](C)N1CCC(c2ccc(-c3cc4c(N5CCN(C(=O)C6CC6)CC5)ccnn4c3)cc2)CC1 [Compound 563]	< 100	< 10
CC[C@H](C)N1CCC(c2ccc(-c3cc4c(N5CCN(C(=O)C6CC6)CC5)ccnn4c3)cc2)CC1 [Compound 564]	< 100	< 10
CC(C)N1CCC(C)(c2ccc(-c3cc4c(N5CCN(C(=O)C6CC6)CC5)ccnn4c3)cc2)CC1 [Compound 565]	< 100	< 10
CC(C)N1CCN(C)C(c2ccc(-c3cc4c(N5CCN(C(=O)C6CC6)CC5)ccnn4c3)cc2)C1 (centres unmarked) [Compound 566]	< 100	< 10
CC(C)N1CCN(C)[C@@H](c2ccc(-c3cc4c(N5CCN(C(=O)C6CC6)CC5)ccnn4c3)cc2)C1 [Compound 567]	< 100	< 10
CC(C)N1CCN(C)[C@H](c2ccc(-c3cc4c(N5CCN(C(=O)C6CC6)CC5)ccnn4c3)cc2)C1 [Compound 568]	< 100	< 10
CC(C)N1CCN[C@](C)(c2ccc(-c3cc4c(N5CCN(C(=O)C6CC6)CC5)ccnn4c3)cc2)C1 [Compound 570]	< 100	< 10
CO[C@]1(c2ccc(-c3cc4c(N5CCN(C(=O)C6CC6)CC5)ccnn4c3)cc2)CCN(C(C)C)C1 [Compound 572]	< 100	< 10
CO[C@@]1(c2ccc(-c3cc4c(N5CCN(C(=O)C6CC6)CC5)ccnn4c3)cc2)CCN(C(C)C)C1 [Compound 573]	< 100	< 10
CC(C)N1CCN[C@](C)(c2ccc(-c3cc4c(N5CCN(C(=O)C6CC6)CC5)ccnn4c3)nc2)C1 [Compound 575]	100 to 500	< 10
CC(C)N1CCN[C@@](C)(c2ccc(-c3cc4c(N5CCN(C(=O)C6CC6)CC5)ccnn4c3)nc2)C1 [Compound 576]	< 100	< 10
CC(C)NC(=O)N1CCN(c2ccnn3cc(-c4ccc([C@@H]5CCCN(C(C)C)C5)cc4)cc23)CC1 [Compound 577]	< 100	< 10
CC(C)NC(=O)N1CCN(c2ccnn3cc(-c4ccc([C@H]5CCCN(C(C)C)C5)cc4)cc23)CC1 [Compound 578]	< 100	< 10
CCCNC(=O)N1CCN(c2ccnn3cc(-c4ccc([C@H]5CCCN(C(C)C)C5)cc4)cc23)CC1 [Compound 579]	< 100	< 10
CCCNC(=O)N1CCN(c2ccnn3cc(-c4ccc([C@@H]5CCCN(C(C)C)C5)cc4)cc23)CC1 [Compound 580]	< 100	< 10
CC(C)NC(=O)N1CCN(c2ccnn3cc(-c4ccc([C@]5(C)CCCN5C(C)C)cc4)cc23)CC1 [Compound 581]	< 100	< 10
CC(C)NC(=O)N1CCN(c2ccnn3cc(-c4ccc([C@@]5(C)CCCN5C(C)C)cc4)cc23)CC1 [Compound 582]	< 100	< 10
CC(C)N1CCC(F)(c2ccc(-c3cc4c(N5CCN(C(=O)C6CC6)CC5)ccnn4c3)cc2)CC1 [Compound 583]	< 100	< 10
CCOC(=O)N1CCN(c2ccnn3cc(-c4ccc(C5(C)CCN(C(C)C)CC5)cc4)cc23)CC1 [Compound 585]	< 100	< 10
CCOC(=O)N1CCN(c2ccnn3cc(-c4ccc([C@@H]5CCCN(C(C)C)C5)cc4)cc23)C[C@H]1C [Compound 586]	100 to 500	< 10
CCNC(=O)N1CCN(c2ccnn3cc(-c4ccc(C5CN(C(C)C)CCN5C)cc4)cc23)CC1 (centres unmarked) [Compound 587]	< 100	< 10

Reference: patent publication US10233186B2, “Inhibitors of activin receptor-like kinase” (BLUEPRINT MEDICINES CORPORATION, priority 2016, dated 2019)
